Data reported in article PMC11091889, “Silver Organometallics that are Highly Potent Thioredoxin and Glutathione Reductase Inhibitors: Exploring the Correlations of Solution Chemistry with the Strong Antibacterial Effects” (ACS Infectious Diseases, 2024).

Tests used:
[1] = system: Caco-2 cells; details: read-out: Cytotoxicity IC50 Caco-2; 24 h, almost confluent cell layers, highest concentration 100 μM
Experimental: Besides the antimicrobial effects, the toxic effects of silver ions have to be considered.[10],[12] As a primary evaluation of the cell toxicity triggered by silver NHC complexes, almost confluent cell layers of CaCo-2 cells were grown and challenged for 24 h with the silver complexes and also with the silver reference compounds AgNO3 and SSD (see Figure 6).
Caco-2 cells were grown as almost confluent monolayers in 96-well plates. The complexes were dissolved in wells of 96-well plates as stock solutions in DMSO (0.2% v/v) diluted with DMEM cell culture medium, which was supplemented with 10% fetal calf serum and 50 mg/L gentamicin. The cell layers were incubated with the drug containing media for 24 h at 37 °C/5% CO2 in an incubator. The cell viability was determined using crystal violet (0.02%) staining and was calculated as percentage of an untreated control. Results were obtained in three independent experiments.

[2] = Conductometry: molar conductivity of silver complexes in DMSO; type: physicochemical; details: 1.0 mM in DMSO, calculated as monocarbene (NHC)AgX
Method in brief: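 Molar conductivity of each silver complex was measured at 1.0 mM in freshly distilled DMSO (specific conductivity ≤3 × 10^–8 S cm^–1) using an Apera Instruments EC9500 conductivity meter at 25 ± 2 °C. AgNO3 served as the 1:1 electrolyte reference, and readings were taken after dissolution to distinguish neutral monocarbene from ionic biscarbene forms.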

[3] = 25 mM in DMSO, dark, 24 h, visual inspection
Experimental: Because of the formation of black colloidal silver in the course of degradation, the solution stability of silver NHC complexes can be monitored visually and with the help of nephelometry. All synthesized complexes were dissolved at 25 mM in DMSO and kept in the dark for 24 h.
After the experiment, the DMSO stock solutions of compounds were kept away from direct light at room temperature for 24 h to monitor the stability of solutions.

[4] = system: S. aureus MRSA (DSM 11822, ICB 25701); assay: microbe, parasite or virus in culture; type: cell-based, methicillin resistant S. aureus; details: n = 3, TSY; for MIC MRSA / EC50: mean ± standard error; for MIC MRSA / MIC MRSA (value in brackets): 22 h; for EC50: read-out: EC50 MRSA
Method in brief: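 Broth microdilution in TSY (30 g/L trypticase soy broth, 3 g/L yeast extract, pH 7.0–7.2), inoculum 2–8 × 10^5 CFU/mL, compounds serially diluted 64 to 1 μg/mL, 22 h at 37 °C. Growth read as absorbance at 600 nm; MIC and EC50 obtained by curve fitting, three independent experiments.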

[5] = system: A. baumannii (DSM 30007, ATCC 19606); assay: Broth microdilution antibacterial assay; type: cell-based, Acinetobacter baumannii; details: n = 3, MHB; for MIC A. baumannii / EC50: mean ± standard error; for MIC A. baumannii / MIC A. baumannii (value in brackets): 22 h; for EC50: read-out: EC50 A. baumannii
Method in brief: (§1)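 Broth microdilution used 2–8 × 10^5 CFU/mL inocula, with compounds serially diluted 64 to 1 μg/mL and incubated 22 h at 37 °C, read at 600 nm. A. baumannii, K. pneumoniae and P. aeruginosa were grown in MHB pH 7.4; E. faecium was grown in TSY pH 7.0–7.2. MIC and EC50 were obtained by curve fitting from three independent experiments.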

[6] = system: K. pneumoniae (DSM 11678, ATCC33495); assay: Broth microdilution antibacterial assay; type: cell-based, Klebsiella pneumoniae; details: n = 3, MHB; for MIC K. pneumoniae / EC50: mean ± standard error; for MIC K. pneumoniae / MIC K. pneumoniae (value in brackets): 22 h; for EC50: read-out: EC50 K. pneumoniae
Method in brief: as §1

[7] = target: T1, glutathione reductase (GR) from E. coli (Escherichia coli, UniProt P06715); assay: GR inhibition assay (DTNB reduction); type: biochemical; details: ± standard deviation, n = 3, 75 min preincubation
T1 construct: purchased Antibodies online
T1 sequence (P06715 1-450): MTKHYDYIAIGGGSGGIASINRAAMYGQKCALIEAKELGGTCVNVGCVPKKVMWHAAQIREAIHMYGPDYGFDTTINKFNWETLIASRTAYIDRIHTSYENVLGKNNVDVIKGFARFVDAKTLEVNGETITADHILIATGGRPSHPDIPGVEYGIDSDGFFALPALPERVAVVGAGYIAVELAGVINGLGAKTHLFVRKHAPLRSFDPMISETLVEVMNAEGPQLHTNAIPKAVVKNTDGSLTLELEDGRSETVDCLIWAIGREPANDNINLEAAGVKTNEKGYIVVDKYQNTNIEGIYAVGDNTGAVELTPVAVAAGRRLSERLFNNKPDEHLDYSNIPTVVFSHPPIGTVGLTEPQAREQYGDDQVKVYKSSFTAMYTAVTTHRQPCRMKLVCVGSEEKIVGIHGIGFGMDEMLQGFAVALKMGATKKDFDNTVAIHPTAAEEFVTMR
Experimental: The inhibition of purified E. coli thioredoxin reductase (TrxR) and glutathione reductase (GR) from both E. coli and baker’s yeast was determined according to a previously applied procedure.[59],[60]
The TrxR (E. coli) and GR (baker’s yeast and E. coli) inhibition assays were performed according to previously published procedures.[62],[75] The assays are partly based on the procedure developed by Lu et al.[60] and make use of the reduction of 5,5′-dithiobis(2-nitrobenzoic acid) (DTNB). Solutions of E. coli TrxR (35.4 U/mL) and E. coli thioredoxin (Trx) (156 μg/mL) (both purchased from Sigma-Aldrich) or baker’s yeast GR (0,08 U/mL, Sigma-Aldrich) or E. coli GR (4.2 U/ml, Antibodies online) and GSSG (0.28 mM, Sigma-Aldrich) in distilled water were prepared, as were fresh 2 mM stock solutions of the test compounds in DMSO. Then, solutions with several concentrations of the test compounds in DMSO were prepared, and 35 μL of each solution was diluted with 965 μL of TE buffer (Tris–HCl 50 mM, EDTA 1 mM, pH 7.5). These solutions (20 μL) or TE buffer without the test compounds (20 μL, as control) were mixed with the TrxR or GR solutions (10 μL), the Trx or GSSG solutions (10 μL), and a solution of NADPH (200 μM) in TE buffer (100 μL) in a well on a 96-well plate. As a blank solution, 200 μM NADPH in TE buffer (100 μL) mixed with a DMSO/buffer mixture (40 μL) was used (final concentrations of DMSO: 0.5% v/v). The plate was incubated for 75 min at 25 °C with moderate shaking. After incubation, 100 μL of a reaction mixture (TE buffer containing 200 μM NADPH and 5 mM DTNB) was added to each well to initiate the reaction. After thorough mixing, the formation of 5-TNB was monitored by a microplate reader at 405 nm in 35 s intervals (10 measurements). The values were corrected by subtraction of the blank solution absorption values. The increase in the concentration of 5-TNB followed a linear trend (r^2 ≥ 0.990), and the enzymatic activities were calculated as the gradients (increase in absorbance per second) thereof. […] The inhibition is presented as the mean IC50 values and standard deviations obtained in three independent experiments.

Row | SMILES | IC50 [1] [nM] | Molar conductivity ΛM ([2]; 1 h after dissolution) [S cm^2 mol^–^1] | Molar conductivity ΛM ([2]; 24 h after dissolution) [S cm^2 mol^–^1] | Solution stability (signs of degradation, precipitation, silver colloid) [3] | MIC MRSA [4] [µM] | EC50 [4] [nM] | MIC MRSA (value in brackets) [4] [µg/mL] | MIC A. baumannii [5] [µM] | EC50 [5] [nM] | MIC A. baumannii (value in brackets) [5] [µg/mL] | MIC K. pneumoniae [6] [µM] | EC50 [6] [nM] | MIC K. pneumoniae (value in brackets) [6] [µg/mL] | IC50 [7] [nM]
1 | COCCn1[c](=[Ag][I])n(Cc2ccccn2)c2ccccc21 [4c, Iodido (1-(2-Methoxyethyl)-3-(pyridin-2-ylmethyl)-benzimidazol-2-ylidene) Silver(I)] | > 100000 | 7.18 | 8.83 | did not show clear signs of degradation | > 128 | > 128000 | > 64 | 9.3 ± 3.5 | 1900 ± 100 | 5 | 4.0 ± 0.0 | 2000 | 2 | –
2 | CC(C)n1[c](=[Ag][Cl])n(Cc2ccccn2)c2ccccc21 [3a, Chlorido (1-Isopropyl-3-(pyridin-2-ylmethyl)-benzimidazol-2-ylidene) Silver(I)] | – | 3.34 | 2.91 | – | 162 ± 0.0 | 88600 ± 1600 | 64 | 13.5 ± 3.4 | 1800 ± 300 | 5 | 13.5 ± 3.4 | 9800 ± 2400 | 5 | 32 ± 2
3 | CC(C)n1[c](=[Ag][Br])n(Cc2ccccn2)c2ccccc21 [3b, Bromido (1-Isopropyl-3-(pyridin-2-ylmethyl)-benzimidazol-2-ylidene) Silver(I)] | – | 5.25 | 4.71 | – | 146 ± 0.0 | 78800 ± 400 | 64 | 15.2 ± 3.0 | 530 ± 140 | 7 | 18.2 ± 0.0 | 8600 ± 200 | 8 | 41 ± 7
4 | CC(C)n1[c](=[Ag][I])n(Cc2ccccn2)c2ccccc21 [3c, Iodido (1-Isopropyl-3-(pyridin-2-ylmethyl)-benzimidazol-2-ylidene) Silver(I)] | > 100000 | 8.15 | 7.62 | did not show clear signs of degradation | > 132 | > 132000 | > 64 | 4.11 ± 0.0 | 1900 ± 100 | 2 | 4.11 ± 0.0 | 2300 ± 300 | 2 | 39 ± 6
